Test results as given in patent publication US20210251963A1, “UREA DERIVATIVES FOR USE IN THE TREATMENT OF SUBJECTS WITH ELEVATED EXPRESSION AND/OR ACTIVITY OF SRPK1” (Scandion Oncology A/S, priority 2018, published 2021).

Columns and labels:
[1] = system: HT29 SN38 resistant colon cancer cells; assay: Cell viability (MTT assay); type: cell-based; details: 72 hours
Experimental: (§1) SN38 was applied to a SN38 sensitive colon cancer cell line (“HT29 parental”) and to a SN38 resistant colon cancer cell line (“HT29 SN38 resistant”).
(§2) The Log Concentration (μM) used are—1 for SN38. Data represents cell viability data (MTT assay) and cells were incubated with drugs for 72 hours.
(§3) The Log Concentrations (μM) used are—1 for SN38, and 1.5 for both Srpkin340 and Sphinx 31. Data represents cell viability data (MTT assay) and cells were incubated with drugs for 72 hours.

[2] = Cell viability (MTT assay); type: cell-based; details: human, HT29 SN38 resistant colon cancer cells, HT29 SN38 resistant, SCO-101 20 μM alone, read-out: cell viability, % of untreated control cells
Experimental: as §1, §2, §3

With `O=C(Nc1cc(C(F)(F)F)cc(C(F)(F)F)c1)Nc1ccc(Br)cc1-c1nnn[nH]1` [SCO-101] the viability at 20 µM ([1]; Homo sapiens, HT-29, HT29 SN38 resistant, combination of SN38 0.1 μM and SCO-101 20 μM, read-out: cell viability, % of untreated control cells) was 22%, the “re-sensitization of SN38 resistant HT29 cells to SN38” value ([1]; SCO-101 20 μM with SN38 0.1 μM) was “re-sensitization” and the viability at 72 h, 20 μM [2] was 96%.
